Experimental data: patent US20200164060A1, “HERPES SIMPLEX VIRUS VACCINE EPITOPES SP[…] TISSUE RESIDENT MEMORY T CELLS” (priority 2017, published 2020)

Test system: biopsy-derived HSV-2-specific CD4 TRM
Assay: single peptide test with biopsy-derived HSV-2-specific CD4 TRM, IFN-γ secretion
Assay type: cell-based, human
Conditions: peptide at 1 μg/ml; HLA-expressing cells as antigen presenting cells; media control gave no response
From the text: FIG. 14. CD4 epitopes: peptide pools→singles. For this example, biopsy-derived cells recognize Cos7 co-transfected with the combination of a subject HLA molecule and HSV-2 UL19 gene. A rectangular matrix of peptides covering UL19 was created and row and column pools were made as indicated on the X axis of the top graph. Only one row pool and one column pool gave a positive proliferative response using the assay described in FIG. 13. The peptide at the intersection of the positive row and column pools, UL19 305-319 (SEQ ID NO: 14), was tested at 1 μg/ml using HLA-expressing cells as antigen presenting cells and biopsy-derived HSV-2-specific CD4 TRM as responder cells. The readout was IFN-γ secretion, as shown in the bottom graphs.
The technology used to determine the fine peptide specificity of biopsy-derived CD4 T cells that recognize HSV-2 has been described in Johnston, et al., Journal of Virology 88, 4921-4931 (2014). In brief, every HSV-2 was expressed. […] T cell activation was detected by proliferation or IFN-γ secretion assays. Once the identity of reactive HSV-2 proteins were determined, peptides from within that protein were tested in repeat assays as described in Johnston, et al., Journal of Virology 88, 4921-4931, (2014). In some cases, dose-response assays were conducted as described in Jing, et al., Journal of Immunology 196, 2205-2218, (2016). […]

## TYGEMVLNGANLVTA [SEQ ID NO: 14]
  IFN-γ response from the biopsy cells: elicited an IFN-γ response
